Results reported in ChEMBL document CHEMBL5335843, “Application of tobramycin benzyl ether as an antibiotic adjuvant capable of sensitizing multidrug-resistant Gram-negative bacteria to rifampicin” (2024).

Assays:
Format in all cases: functional
Pseudomonas aeruginosa [1] = assay: Antibacterial activity against multi-drug resistant Pseudomonas aeruginosa clinical isolate 101243 assessed as inhibition of bacterial growth incubated for 18 hrs by two fold broth microdilution assay
Pseudomonas aeruginosa [2] = assay: Antibacterial activity against Pseudomonas aeruginosa PAO1 assessed as inhibition of bacterial growth incubated for 18 hrs by two fold broth microdilution assay
Pseudomonas aeruginosa [3] = assay: Antibacterial activity against multi-drug resistant Pseudomonas aeruginosa clinical isolate PA262 assessed as inhibition of bacterial growth incubated for 18 hrs by two fold broth microdilution assay
Escherichia coli [4] = assay: Antibacterial activity against multi-drug resistant Escherichia coli clinical isolate 94393 assessed as inhibition of bacterial growth incubated for 18 hrs by two fold broth microdilution assay
Acinetobacter baumannii [5] = assay: Antibacterial activity against multi-drug resistant Acinetobacter baumannii clinical isolate 92247 assessed as inhibition of bacterial growth incubated for 18 hrs by two fold broth microdilution assay
Pseudomonas aeruginosa [6] = assay: Antibiotic adjuvant activity against multi-drug resistant Pseudomonas aeruginosa clinical isolate PA262 assessed as rifampicin MIC incubated for 18 hrs in presence of Rifampicin by two fold broth microdilution checkerboard assay
Pseudomonas aeruginosa [7] = assay: Antibiotic adjuvant activity against multi-drug resistant Pseudomonas aeruginosa clinical isolate PA264 assessed as inhibition of bacterial growth incubated for 18 hrs in presence of Rifampicin by two fold broth microdilution checkerboard assay
Acinetobacter baumannii [8] = assay: Antibiotic adjuvant activity against multi-drug resistant Acinetobacter baumannii clinical isolate LAC-4 assessed as inhibition of bacterial growth incubated for 18 hrs in presence of Rifampicin by two fold broth microdilution checkerboard assay
Pseudomonas aeruginosa [9] = assay: Antibiotic adjuvant activity against multi-drug resistant Pseudomonas aeruginosa clinical isolate 114228 assessed as fold potentiation incubated for 18 hrs in presence of Rifampicin by two fold broth microdilution checkerboard assay
Pseudomonas aeruginosa [10] = assay: Antibiotic adjuvant activity against multi-drug resistant Pseudomonas aeruginosa clinical isolate PA259 assessed as fold potentiation incubated for 18 hrs in presence of Rifampicin by two fold broth microdilution checkerboard assay
Pseudomonas aeruginosa [11] = assay: Antibiotic adjuvant activity against multi-drug resistant Pseudomonas aeruginosa clinical isolate 114228 assessed as fractional inhibitory concentration index incubated for 18 hrs in presence of Rifampicin by two fold broth microdilution checkerboard assay
Escherichia coli [12] = assay: Antibiotic adjuvant activity against multi-drug resistant Escherichia coli clinical isolate 94393 assessed as fractional inhibitory concentration index incubated for 18 hrs in presence of Rifampicin by two fold broth microdilution checkerboard assay
Escherichia coli [13] = assay: Antibiotic adjuvant activity against multi-drug resistant Escherichia coli clinical isolate 94474 assessed as fractional inhibitory concentration index incubated for 18 hrs in presence of Rifampicin by two fold broth microdilution checkerboard assay
Pseudomonas aeruginosa [14] = assay: Antibacterial activity against multi-drug resistant Pseudomonas aeruginosa clinical isolate PA101243 assessed as inhibition of bacterial growth incubated for 18 hrs by two fold broth microdilution assay
Escherichia coli [15] = assay: Antibacterial activity against multi-drug resistant Escherichia coli clinical isolate EC107115 assessed as inhibition of bacterial growth incubated for 18 hrs by two fold broth microdilution assay
Escherichia coli [16] = assay: Antibacterial activity against multi-drug resistant Escherichia coli clinical isolate EC94474 assessed as inhibition of bacterial growth incubated for 18 hrs by two fold broth microdilution assay
Pseudomonas aeruginosa [17] = assay: Antibiotic adjuvant activity against multi-drug resistant Pseudomonas aeruginosa clinical isolate PA264 assessed as minocycline MIC incubated for 18 hrs in presence of minocycline by two fold broth microdilution checkerboard assay
Pseudomonas aeruginosa [18] = assay: Antibiotic adjuvant activity against multi-drug resistant Pseudomonas aeruginosa clinical isolate PA101243 assessed as fold potentiation incubated for 18 hrs in presence of minocycline by two fold broth microdilution checkerboard assay
Escherichia coli [19] = assay: Antibiotic adjuvant activity against multi-drug resistant Escherichia coli clinical isolate EC107115 assessed as fold potentiation incubated for 18 hrs in presence of minocycline by two fold broth microdilution checkerboard assay
Pseudomonas aeruginosa [20] = assay: Antibiotic adjuvant activity against multi-drug resistant Pseudomonas aeruginosa clinical isolate PA114228 assessed as fractional inhibitory concentration index incubated for 18 hrs in presence of minocycline by two fold broth microdilution checkerboard assay
Pseudomonas aeruginosa [21] = assay: Antibiotic adjuvant activity against multi-drug resistant Pseudomonas aeruginosa clinical isolate PA264 assessed as doxycycline MIC incubated for 18 hrs in presence of doxycycline by two fold broth microdilution checkerboard assay
Pseudomonas aeruginosa [22] = assay: Antibiotic adjuvant activity against multi-drug resistant Pseudomonas aeruginosa clinical isolate PA101243 assessed as inhibition of bacterial growth incubated for 18 hrs in presence of doxycycline by two fold broth microdilution checkerboard assay
Pseudomonas aeruginosa [23] = assay: Antibiotic adjuvant activity against multi-drug resistant Pseudomonas aeruginosa clinical isolate PA101243 assessed as fold potentiation incubated for 18 hrs in presence of doxycycline by two fold broth microdilution checkerboard assay
Pseudomonas aeruginosa [24] = assay: Antibiotic adjuvant activity against multi-drug resistant Pseudomonas aeruginosa clinical isolate PA262 assessed as fold potentiation incubated for 18 hrs in presence of doxycycline by two fold broth microdilution checkerboard assay
Pseudomonas aeruginosa [25] = assay: Antibiotic adjuvant activity against multi-drug resistant Pseudomonas aeruginosa clinical isolate PA264 assessed as fold potentiation incubated for 18 hrs in presence of doxycycline by two fold broth microdilution checkerboard assay
Escherichia coli [26] = assay: Antibiotic adjuvant activity against multi-drug resistant Escherichia coli clinical isolate EC107115 assessed as fold potentiation incubated for 18 hrs in presence of doxycycline by two fold broth microdilution checkerboard assay
Escherichia coli [27] = assay: Antibiotic adjuvant activity against multi-drug resistant Escherichia coli clinical isolate EC94474 assessed as fold potentiation incubated for 18 hrs in presence of doxycycline by two fold broth microdilution checkerboard assay
Pseudomonas aeruginosa [28] = assay: Antibiotic adjuvant activity against multi-drug resistant Pseudomonas aeruginosa clinical isolate PA101243 assessed as fractional inhibitory concentration index incubated for 18 hrs in presence of doxycycline by two fold broth microdilution checkerboard assay
Enterococcus faecium [29] = assay: Antibiotic adjuvant activity against Enterococcus faecium 114278 assessed as rifampicin MIC incubated for 18 hrs in presence of rifampicin by two fold broth microdilution checkerboard assay
Enterococcus faecium [30] = assay: Antibiotic adjuvant activity against Enterococcus faecium 114278 assessed as inhibition of bacterial growth incubated for 18 hrs in presence of rifampicin by two fold broth microdilution checkerboard assay
Enterococcus faecium [31] = assay: Antibiotic adjuvant activity against Enterococcus faecium 114278 assessed as fractional inhibitory concentration index incubated for 18 hrs in presence of rifampicin by two fold broth microdilution checkerboard assay
Acinetobacter baumannii [32] = assay: Antibiotic adjuvant activity against Acinetobacter baumannii ATCC 17978 assessed as fold potentiation incubated for 18 hrs in presence of Rifampicin by two fold broth microdilution checkerboard assay
Acinetobacter baumannii [33] = assay: Antibiotic adjuvant activity against Acinetobacter baumannii ATCC 17978 assessed as fold potentiation at 16 ug/ml incubated for 18 hrs in presence of rifampicin and 25 % FBS media by two fold broth microdilution checkerboard assay; details: dose 16 µg/ml
Acinetobacter baumannii [34] = assay: Antibiotic adjuvant activity against Acinetobacter baumannii ATCC 17978 assessed as fold potentiation incubated for 18 hrs in presence of rifampicin by two fold broth microdilution checkerboard assay relative to FBS
Enterobacterales = assay: Antibiotic adjuvant activity against Enterobacterales assessed as minocycline MIC incubated for 18 hrs in presence of minocycline by two fold broth microdilution checkerboard assay
Escherichia coli [35] = assay: Antibiotic adjuvant activity against Escherichia coli ATCC 25922 assessed as minocycline MIC incubated for 18 hrs in presence of minocycline by two fold broth microdilution checkerboard assay
Escherichia coli [36] = assay: Antibiotic adjuvant activity against Escherichia coli ATCC 25922 assessed as doxycycline MIC incubated for 18 hrs in presence of doxycycline by two fold broth microdilution checkerboard assay

SMILES: Cl.NC[C@H]1O[C@H](O[C@H]2[C@H](OCc3ccccc3)[C@@H](O[C@H]3O[C@H](COCc4ccccc4)[C@@H](OCc4ccccc4)[C@H](N)[C@H]3OCc3ccccc3)[C@H](N)C[C@@H]2N)[C@H](N)C[C@@H]1OCc1ccccc1
- MIC (Pseudomonas aeruginosa [1]): 64 µg/mL
- MIC (Pseudomonas aeruginosa [2]): 64 µg/mL
- MIC (Pseudomonas aeruginosa [3]): 128 µg/mL
- MIC (Escherichia coli [4]): 32 µg/mL
- MIC (Acinetobacter baumannii [5]): 32 µg/mL
- MIC (Pseudomonas aeruginosa [6]): 512 µg/mL
- MIC (Pseudomonas aeruginosa [7]): 8 µg/mL
- MIC (Acinetobacter baumannii [8]): 4 µg/mL
- fold change (FC) (Pseudomonas aeruginosa [9]): 1
- fold change (FC) (Pseudomonas aeruginosa [10]): 1
- fractional inhibitory concentration index (FICI) (Pseudomonas aeruginosa [11]): 1.125
- fractional inhibitory concentration index (FICI) (Escherichia coli [12]): 1.25
- fractional inhibitory concentration index (FICI) (Escherichia coli [13]): 0.129
- MIC (Pseudomonas aeruginosa [14]): 64 µg/mL
- MIC (Escherichia coli [15]): 32 µg/mL
- MIC (Escherichia coli [16]): 32 µg/mL
- MIC (Pseudomonas aeruginosa [17]): 16 µg/mL
- fold change (FC) (Pseudomonas aeruginosa [18]): 1
- fold change (FC) (Escherichia coli [19]): 32
- fractional inhibitory concentration index (FICI) (Pseudomonas aeruginosa [20]): 1.063
- MIC (Pseudomonas aeruginosa [21]): 64 µg/mL
- MIC (Pseudomonas aeruginosa [22]): 8 µg/mL
- fold change (FC) (Pseudomonas aeruginosa [23]): 1
- fold change (FC) (Pseudomonas aeruginosa [24]): 1
- fold change (FC) (Pseudomonas aeruginosa [25]): 1
- fold change (FC) (Escherichia coli [26]): 4
- fold change (FC) (Escherichia coli [27]): 8
- fractional inhibitory concentration index (FICI) (Pseudomonas aeruginosa [28]): 1.063
- MIC (Enterococcus faecium [29]): 4 µg/mL
- MIC (Enterococcus faecium [30]): 4 µg/mL
- fractional inhibitory concentration index (FICI) (Enterococcus faecium [31]): 1.5
- fold change (FC) (Acinetobacter baumannii [32]): 8
- fold change (FC) (Acinetobacter baumannii [33]): 32
- fold change (FC) (Acinetobacter baumannii [34]): 64
- MIC (Enterobacterales): ≤ 4 µg/mL
- MIC (Escherichia coli [35]): 8 µg/mL
- MIC (Escherichia coli [36]): 0.125 µg/mL
